Assay results: patent publication US4638051A, “Brain imaging radiopharmaceuticals” (The Johns Hopkins University, priority 1985, dated 1987)

Test: Biodistribution studies in ICR white mice: percent of injected dose of Tc-99m complex in brain tissue
Assay type: in vivo
Settings: for % of Dose of Tc99m Complex in Brain, 5 min / % of Dose of Tc99m Complex in Brain, 15 min / % of Dose of Tc99m Complex in Brain, 10 min: ICR white mice, i.v. (tail), 0.5 to 2 microcuries, saline
Procedure: Biodistribution studies have been conducted with several complexes according to the present invention, in ICR white mice. A saline solution containing 0.5 to 2 microcuries of the Tc-99m complex was injected intravenously (tail), and the mice were sacrificed after 5, 10 or 15 minutes. The percent of the injected dose which was present in brain tissue was measured. […] On the other hand, the data reveal that the compounds containing the alkyl-amino group according to the present invention are retained in the brain for much longer times. For example, after 15 minutes, the concentration of compound 3 is 15 times that of compound 1.

Row | Compound | % of Dose of Tc99m Complex in Brain, 5 min | % of Dose of Tc99m Complex in Brain, 15 min | % of Dose of Tc99m Complex in Brain, 10 min | concentration in brain relative to that of compound 1 (after 15 minutes, mice, i.v., relative to compound 1) [times]
1 | CC(C)(S)CNC(C)(C)CN(CCN1CCCCC1)CC(C)(C)S [Compound 9] | 2.19 % of Dose | 1.01 % of Dose |  | 
2 | CN(C)CCN(CCNCC(C)(C)S)CC(C)(C)S [Compound 2] | 0.89 % of Dose | 0.42 % of Dose | 0.30 % of Dose | 
3 | CC(C)(S)CNCCNCC(C)(C)S [Compound 1, reference compound] | 1.02 % of Dose | 0.03 % of Dose | 0.30 % of Dose | 
4 | CC(C)NCCN(CCNCC(C)(C)S)CC(C)(C)S [Compound 3] | 0.64 % of Dose | 0.49 % of Dose | 0.49 % of Dose | 15
